± gives the expanded uncertainty stated by the source.
Conditions: Liquid; for mass density: 298.15 K, 101.33 kPa, Vibrating tube method; for Normal boiling temperature: Ebulliometric method (Recirculating still)

mass density [kg/m3] | Normal boiling temperature [°C] | Structure (SMILES)
798 ± 0.2 | 107.83 ± 0.2 | CC(C)CO [2-methyl-1-propanol]
866.2 ± 0.2 | 116.8 ± 0.2 | CC(=O)OCC(C)C [2-methylpropyl ethanoate]
1095.5 ± 0.2 | 190.70 ± 0.2 | C[S+](C)[O-] [dimethyl sulfoxide]

— the NIST ThermoML archive (doi:10.1021/acs.jced.7b00241)
